Measured values from patent US20210244712A1, “METHODS FOR TREATING PATIENTS WITH CANCER HAVING DEFECTS IN CYCLIN D REGULATION” (NysnoBio Ireland DAC, priority 2018, published 2021).

Tests used:
Assay in all cases: Cell proliferation assay
Assay type in all cases: cell-based
Mino = conditions: Homo sapiens; Mantle Cell Mino; overexpression of Cyclin D
Procedure, shortened: (§1)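 4×10^4 cells/ml plated, o/n 37° C./5% CO2; cpd added in triplicate, 72 hrs. Wash PBS, pNPP 10 mM in 0.1M NaOAc pH 5.5, 2 h 37° C. dark, stop NaOH, A405–A620. % inhibition vs DMSO.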

SK-OV-3 = conditions: Homo sapiens, Table 7a, Ovarian (SKOV3)
Procedure, shortened: as §1

BT-474 = conditions: Homo sapiens, 72 hrs, read-out: Cell Viability: IC50
Procedure, shortened: as §1

COV504 = conditions: 72 hrs, read-out: Cell Viability: IC50
Procedure, shortened: as §1

Calu-6 = conditions: Homo sapiens, 72 hrs, read-out: Cell Viability: IC50
Procedure, shortened: as §1

DLD-1 = conditions: Homo sapiens, 72 hrs, read-out: Cell Viability: IC50
Procedure, shortened: as §1

HCC1954 = conditions: Homo sapiens, 72 hrs, read-out: Cell Viability: IC50
Procedure, shortened: as §1

HCT-8 = conditions: Homo sapiens, 72 hrs, read-out: Cell Viability: IC50
Procedure, shortened: as §1

HT-29 = conditions: Homo sapiens, 72 hrs, read-out: Cell Viability: IC50
Procedure, shortened: as §1

JIMT-1 = conditions: Homo sapiens, 72 hrs, read-out: Cell Viability: IC50
Procedure, shortened: as §1

LOVO = conditions: Homo sapiens, 72 hrs, read-out: Cell Viability: IC50
Procedure, shortened: as §1

LS174T = conditions: Homo sapiens, 72 hrs, read-out: Cell Viability: IC50
Procedure, shortened: as §1

MDA-MB-157 = conditions: Homo sapiens, 72 hrs, read-out: Cell Viability: IC50
Procedure, shortened: as §1

MDA-MB-231 = conditions: Homo sapiens, 72 hrs, read-out: Cell Viability: IC50
Procedure, shortened: as §1

MDA-MB-436 = conditions: Homo sapiens, 72 hrs, read-out: Cell Viability: IC50
Procedure, shortened: as §1

MDA-MB-453 = conditions: Homo sapiens, 72 hrs, read-out: Cell Viability: IC50
Procedure, shortened: as §1

MSTO-211H = conditions: Homo sapiens, 72 hrs, read-out: Cell Viability: IC50
Procedure, shortened: as §1

NCl-H1395 = conditions: 72 hrs, read-out: Cell Viability: IC50
Procedure, shortened: as §1

NCl-H1703 = conditions: 72 hrs, read-out: Cell Viability: IC50
Procedure, shortened: as §1

NCl-H292 = conditions: 72 hrs, read-out: Cell Viability: IC50
Procedure, shortened: as §1

OVISE = conditions: 72 hrs, read-out: Cell Viability: IC50
Procedure, shortened: as §1

OVSAHO = conditions: Homo sapiens, 72 hrs, read-out: Cell Viability: IC50
Procedure, shortened: as §1

OVTOKO = conditions: 72 hrs, read-out: Cell Viability: IC50
Procedure, shortened: as §1

RKO = conditions: Homo sapiens, 72 hrs, read-out: Cell Viability: IC50
Procedure, shortened: as §1

SK-BR-3 = conditions: Homo sapiens, 72 hrs, read-out: Cell Viability: IC50
Procedure, shortened: as §1

SK-LU-1 = conditions: Homo sapiens, 72 hrs, read-out: Cell Viability: IC50
Procedure, shortened: as §1

SW480 = conditions: Homo sapiens, 72 hrs, read-out: Cell Viability: IC50
Procedure, shortened: as §1

SW527 = conditions: 72 hrs, read-out: Cell Viability: IC50
Procedure, shortened: as §1

SW948 = conditions: Homo sapiens, 72 hrs, read-out: Cell Viability: IC50
Procedure, shortened: as §1

T-47D = conditions: Homo sapiens, T47D, 72 hrs, read-out: Cell Viability: IC50
Procedure, shortened: as §1

ZR-75-1 = conditions: Homo sapiens, 72 hrs, read-out: Cell Viability: IC50
Procedure, shortened: as §1

Q: For `Cc1ccccc1C(=O)Nc1nc(NC(=O)c2ccccc2C)n(-c2ccc(OC(F)(F)F)cc2)n1` [Compound 42, N,N′-(1-(4-(trifluoromethoxy)phenyl)-1H-1,2,4-triazole-3,5-diyl)bis(2-methylbenzamide)], which IC50 (Mino) is on record?
A: 0.345 µM

Q: What about the EC50 (SK-OV-3) of the same molecule?
A: 0.376 µM

Q: `Cc1ccccc1C(=O)Nc1nc(NC(=O)c2ccccc2C)n(-c2ccccc2)n1` [Compound F, 2-methyl-N-[5-[(2-methylbenzoyl)amino]-1-phenyl-1,2,4-triazol-3-yl]benzamide] was tested. Which IC50 (BT-474) did it give?
A: 3.03 µM

Q: And the IC50 (COV504)?
A: 2 µM

Q: What about the IC50 (Calu-6) of the same molecule?
A: 1.89 µM

Q: And the IC50 (DLD-1)?
A: 7.49 µM

Q: What about the IC50 (HCC1954) of the same molecule?
A: 3.69 µM

Q: And the IC50 (HCT-8)?
A: 4.74 µM

Q: And the IC50 (HT-29)?
A: 2.96 µM

Q: What about the IC50 (JIMT-1) of the same molecule?
A: 8.49 µM

Q: And the IC50 (LOVO)?
A: 5.64 µM

Q: What about the IC50 (LS174T) of the same molecule?
A: 2.37 µM

Q: And the IC50 (MDA-MB-157)?
A: 5.82 µM

Q: What about the IC50 (MDA-MB-231) of the same molecule?
A: 6.98 µM

Q: And the IC50 (MDA-MB-436)?
A: 6.55 µM

Q: And the IC50 (MDA-MB-453)?
A: 3.04 µM

Q: And the IC50 (MSTO-211H)?
A: 2.31 µM

Q: What about the IC50 (NCl-H1395) of the same molecule?
A: 7.6 µM

Q: What about the IC50 (NCl-H1703) of the same molecule?
A: 1.85 µM

Q: What about the IC50 (NCl-H292) of the same molecule?
A: 0.95 µM

Q: And the IC50 (OVISE)?
A: 7.33 µM

Q: What about the IC50 (OVSAHO) of the same molecule?
A: 6.53 µM

Q: What about the IC50 (OVTOKO) of the same molecule?
A: > 10 µM

Q: What about the IC50 (RKO) of the same molecule?
A: 4.12 µM

Q: And the IC50 (SK-BR-3)?
A: 3.05 µM

Q: What about the IC50 (SK-LU-1) of the same molecule?
A: 5.73 µM

Q: What about the IC50 (SW480) of the same molecule?
A: 3.49 µM

Q: And the IC50 (SW527)?
A: 6.69 µM

Q: What about the IC50 (SW948) of the same molecule?
A: 8.37 µM

Q: And the IC50 (T-47D)?
A: 7.37 µM

Q: What about the IC50 (ZR-75-1) of the same molecule?
A: 3.87 µM
